Publication PMC10786919, “Design-rules for stapled peptides with in vivo activity and their application to Mdm2/X antagonists” (Nature Communications, 2024)
Converted amounts (≈) assume the structure as drawn. Where two headings read alike, the source gives them in different places. Positions of bridges follow the written chain, without caps; N, C: chain ends. Non-standard residues stand in square brackets, D forms with d. Residues, ends and D or L forms follow the SMILES beside them. Lys(N3) = [N-]=[N+]=NCCCC[C@H](N)C(=O)O; Gla = N[C@@H](CC(C(=O)O)C(=O)O)C(=O)O; R8 = C=CCCCCCC[C@@](C)(N)C(=O)O; Cba = N[C@@H](CC1CCC1)C(=O)O; S5 = C=CCCC[C@](C)(N)C(=O)O; βAla = NCCC(=O)O

Columns and labels:
[1] = target: T1, human Mdm2 1–125 (Homo sapiens, UniProt Q00987); test: Mdm2 binding by competitive fluorescence anisotropy assay (FP binding)
T1 construct: GST (N); His6 (internal); TEV cleavage site (ENLYFQG) (internal); made in house; host or cells: BL21 (DE3) Rosetta T1R Escherichia coli
T1 sequence (Q00987 with tags, fused parts or gaps): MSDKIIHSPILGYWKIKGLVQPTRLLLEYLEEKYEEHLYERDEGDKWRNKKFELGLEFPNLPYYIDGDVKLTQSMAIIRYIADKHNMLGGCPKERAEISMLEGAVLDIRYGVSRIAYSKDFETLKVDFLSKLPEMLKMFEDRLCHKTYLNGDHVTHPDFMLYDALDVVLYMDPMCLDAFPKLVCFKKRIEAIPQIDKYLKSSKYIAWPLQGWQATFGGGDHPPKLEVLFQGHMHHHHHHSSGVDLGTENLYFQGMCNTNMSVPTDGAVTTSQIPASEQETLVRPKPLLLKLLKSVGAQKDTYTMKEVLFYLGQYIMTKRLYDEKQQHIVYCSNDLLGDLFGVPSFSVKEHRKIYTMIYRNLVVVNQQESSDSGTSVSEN
From the text: The TEV (tobacco etch virus) cleavage site was changed from ENLYFQS to ENLYFQG to give a fusion protein with the following sequence:
[P] is the protein concentration (Mdm2), [L] is the labeled peptide concentration, r is the anisotropy measured, r0 is the anisotropy of the free peptide, rb is the anisotropy of the Mdm2–FAM-labeled peptide complex, Kd is the dissociation constant, [L]t is the total FAM labeled peptide concentration, and [P]t is the total Mdm2 concentration. […] This value was then used to determine apparent Kd values of the respective competing ligands in subsequent competition assays in fluorescence anisotropy experiments.
The competing molecules were then titrated against the complex of the FAM-labeled peptide and protein. Apparent Kd values were determined by fitting the experimental data to equations shown below:2 r=ro+(rb−ro)×2(d^2−3e)cos(θ/3)−9/3Kd1+2(d^2−3e)cos(θ/3)−d 3 d=Kd1+Kd2+[L]st+[L]t−Pt 4 e=Lt−PtKd1+Lst+PtKd2+Kd1Kd2 5 f=−Kd1Kd2[P]t 6 θ=arcos−2d^3+9de−27f/2(d^2−3e)^3
[L]st and [L]t denote labeled ligand and total unlabeled ligand input concentrations, respectively. Kd2 is the dissociation constant of the interaction between the unlabeled ligand and the protein. In all competition experiments, it is assumed that [P]t > [L]st, otherwise considerable amounts of free labeled ligand would always be present and would interfere with measurements. […] The FAM-labeled peptide was dissolved in dimethyl sulfoxide (DMSO) at 1 mM and diluted into experimental buffer. Readings were carried out with an Envision Multilabel Reader (PerkinElmer). […] Curve-fitting was carried out using Prism 4.0 (GraphPad). […] Negative control titrations of the ligands under investigation were also carried out with the fluorescently labeled peptide (in the absence of Mdm2) to ensure no interactions were occurring between the ligands and the FAM-labeled peptide. […] Measurements were taken a minimum of three times (biological replicates) and values are reported as geometric means of the replicates.

[2] = tested on: p53 responsive β-lactamase reporter in HCT116 cells; test: cells; type: cell-based; details: 0% FBS 4Hr
Procedure, shortened: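 Read-out used the ToxBLAzer Dual Screen for β-lactamase driven by a stably integrated p53-responsive reporter. Assay: 8000 HCT116 cells per well at 0.5% final DMSO. Reported numbers are geometric means over a minimum of three biological replicates.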

[3] = Lactate dehydrogenase (LDH) release assay; type: cell-based
Procedure, shortened: (§1)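 Geometric means of at least three independent biological runs are given for LDH release measured in HCT116 cells stably expressing a p53-driven β-lactamase reporter. Plating density was 8000 cells/well; DMSO in wells was 0.5%.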

[4] = tested on: HCT116 cells; test: Lactate dehydrogenase (LDH) release assay; type: cell-based
Procedure, shortened: as §1

[5] = tested on: Jump-In T-REx CHO-K1 BLA cells; test: cells; type: cell-based; details: 0% FBS 4Hr; for EC50: read-out: TETCHO: Counterscreen EC50
[6] = Solubility assay (kinetic solubility, PBS pH 7); type: physicochemical; details: pH 7, aqueous buffer, kinetic from dmso stock, pH 7, PBS; read-out: Solubility
Procedure, shortened: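 Quantitation uses an external standard at 100 µM, prepared from 10 mM stock in acetonitrile:methanol:DMSO (10:80:10). Solubility (µM) = (peak area of sample ÷ peak area of standard) × standard concentration.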

[7] = EPSA; type: physicochemical; details: EPSA
[8] = Experimental LogD (partition coefficient); details: not stated, Partition Coeff LogD
[9] = tested on: Ca Ski cell line; details: Ca Ski
Procedure, shortened: (§2)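 Compound dilution series (10 points, 3-fold, 10 mM top stock in DMSO) tested on overnight-plated Ca Ski cells in RPMI1640/10% FBS and on blasticidin-selected p53RE-bla HCT-116 cells in McCoy's 5A; read-out was CellTiter-Glo 2.0 luminescence after room-temperature equilibration.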

[10] = tested on: CellSensor p53RE-bla HCT-116 Cell Line; details: read-out: Proliferation EC50 HCT116 (On-target); HCT116
Procedure, shortened: as §2

[11] = Nanoclick permeability assay
Procedure, shortened: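 Azido-peptide permeability was read as loss of NanoBRET signal (donor 450 nm, acceptor 610 nm) after adding NanoBret618-azide at 10 μM final.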

[12] = read-out: p53 reporter assay: EC50

SMILES: CC(=O)N[C@@H](CCCCN)C(=O)NCCCCCC(=O)N[C@H](C(=O)N[C@@H](CO)C(=O)N[C@@H](Cc1ccccc1)C(=O)N[C@]1(C)CCCCCCC=CCCC[C@@](C)(C(=O)N[C@@H](CCC(=O)O)C(=O)N[C@@H](CC(N)=O)C(=O)N[C@@H](Cc2ccccc2)C(N)=O)NC(=O)[C@H](CC(C)C)NC(=O)[C@H](CC(C)C)NC(=O)[C@H](C)NC(=O)[C@H](Cc2c[nH]c3ccccc23)NC(=O)[C@H](Cc2ccc(O)cc2)NC(=O)[C@H](CCC(=O)O)NC1=O)[C@@H](C)O [MP-6210]
- Kd ([1]; read-out: FP binding assay KD): 67.4 nM
- p53 reporter assay: % Effect [2]: 115.9%
- EC50 [2, 12]: 7.41 µM
- EC50 ([3]; LDH: Cytotoxicity assay: EC50): > 50.7 µM
- LDH: Cytotoxicity assay: % Effect [4]: 13.27%
- TETCHO: Counterscreen % Effect [5]: 57.09%
- EC50 [5]: 44 µM
- solubility kinetic [6]: 74 µM (≈ 155 µg/mL)
- EPSA [7]: 255 A^2
- logD [8]: 2.55

SMILES: CC(=O)N[C@@H](CC(C)C)C(=O)N[C@H](C(=O)N[C@@H](Cc1ccccc1)C(=O)N[C@]1(C)CCCCCCC=CCCC[C@@](C)(C(=O)N[C@@H](CO)C(=O)N[C@@H](C)C(=O)N[C@@H](C)C(N)=O)NC(=O)[C@H](CC(C)C)NC(=O)[C@H](CCC(N)=O)NC(=O)[C@H](C)NC(=O)[C@H](Cc2c[nH]c3ccccc23)NC(=O)[C@H](Cc2ccc(O)cc2)NC(=O)[C@H](CCC(=O)O)NC1=O)[C@@H](C)O [MP-154]
- Kd ([1]; read-out: FP binding assay KD): 44.4 nM
- p53 reporter assay: % Effect [2]: 150.7%
- EC50 [2, 12]: 0.417 µM
- EC50 ([3]; LDH: Cytotoxicity assay: EC50): > 50.7 µM
- LDH: Cytotoxicity assay: % Effect [4]: 34.9%
- TETCHO: Counterscreen % Effect [5]: 205.4%
- EC50 [5]: 27.1 µM
- solubility kinetic [6]: 146 µM (≈ 254 µg/mL)
- EPSA [7]: 199 A^2
- logD [8]: 2.87

SMILES: CC(=O)N[C@@H](CCCCN=[N+]=[N-])C(=O)NCCC(=O)N[C@@H](CC(C)C)C(=O)N[C@H](C(=O)N[C@@H](Cc1ccccc1)C(=O)N[C@]1(C)CCCCCCC=CCCC[C@@](C)(C(=O)N[C@@H](CC(C(=O)O)C(=O)O)C(=O)N[C@@H](C)C(=O)N[C@@H](C)C(=O)N[C@@H](C)C(=O)N[C@@H](C)C(=O)N[C@H](C)C(N)=O)NC(=O)[C@H](CC2CCC2)NC(=O)[C@H](CCC(N)=O)NC(=O)[C@H](C)NC(=O)[C@H](Cc2c[nH]c3ccccc23)NC(=O)[C@H](Cc2ccc(O)cc2)NC(=O)[C@H](CCC(=O)O)NC1=O)[C@@H](C)O [MP-897] (Ac-[Lys(N3)][βAla]LTF[R8]EYWAQ[Cba][S5][Gla]AAAA[dA]-NH2; staple 6-13)
- Kd ([1]; Binding KD): < 1 nM
- EC50 ([3]; 0% FBS 4Hr, read-out: LDH: Cytotoxicity assay: EC50): > 50.7 µM
- EC50 ([3]; 10% FBS 16Hr, read-out: LDH: Cytotoxicity assay: EC50): > 50.7 µM
- LDH: Cytotoxicity assay: % Effect ([4]; 0% FBS 4Hr): 6.465%
- LDH: Cytotoxicity assay: % Effect ([4]; 10% FBS 16Hr): 20.53%
- solubility kinetic [6]: 163 µM (≈ 370 µg/mL)
- Proliferation % inhibition at 50 µM Ca Ski ([9]; 50 µM): -19.1%
- EC50 ([9]; read-out: Proliferation EC50 Ca Ski (Off-target)): > 49.8 µM
- EC50 [10]: 790 nM
- cell entry EC50 [11]: 2270 nM
- EPSA [7]: 257 A^2
- logD [8]: 2.25

SMILES: CC(=O)N[C@H](C(=O)N[C@@H](CO)C(=O)N[C@@H](Cc1ccccc1)C(=O)N[C@]1(C)CCCCCCC=CCCC[C@@](C)(C(N)=O)NC(=O)[C@H](CC(C)C)NC(=O)[C@H](CC(C)C)NC(=O)[C@H](C)NC(=O)[C@H](Cc2c[nH]c3ccccc23)NC(=O)[C@H](Cc2ccc(O)cc2)NC(=O)[C@H](Cc2c[nH]cn2)NC1=O)[C@@H](C)O [MP-138] (Ac-TSF[R8]HYWALL[S5]-NH2; staple 4-11)
- Kd ([1]; read-out: FP binding assay KD): 87.9 nM
- EC50 ([2]; read-out: p53 reporter assay EC50): 4.9 µM
- EC50 ([3]; LDH: Cytotoxicity assay EC50): > 50 µM
- LDH: Cytotoxicity assay % Effect [4]: 0.2053%
- TETCHO: Counterscreen % Effect [5]: 24.03%
- EC50 [5]: > 50 µM
